# From patent US8741892B2, “Compounds” (Boehringer Ingelheim International GmbH, priority 2011, dated 2014)
# Target: T1, human recombinant mGluR5 (Homo sapiens, UniProt P41594)
# T1 construct: expressed in transfected cells; host or cells: HEK 293
# Test: positive modulation of mGluR5, calcium based FLIPR assay
# Conditions: HEK 293 cell line expressing human recombinant mGluR5; EC50 of the modulation from peak Ca fluorescence signal after glutamate at approx. 5% basal stimulation
# Outline: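 HEK 293 cells expressing human recombinant mGluR5, Calcium-4 dye-loaded in Ringer solution pH 7.4. Compound (1% DMSO final) preincubated 5 min, then glutamate at ~5% of maximal effect added; peak Ca2+ fluorescence gives EC50 by nonlinear regression, normalized to DMSO (100%) and 10 μM CDPPB (200%) controls.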
# T1 sequence (P41594 21-1212): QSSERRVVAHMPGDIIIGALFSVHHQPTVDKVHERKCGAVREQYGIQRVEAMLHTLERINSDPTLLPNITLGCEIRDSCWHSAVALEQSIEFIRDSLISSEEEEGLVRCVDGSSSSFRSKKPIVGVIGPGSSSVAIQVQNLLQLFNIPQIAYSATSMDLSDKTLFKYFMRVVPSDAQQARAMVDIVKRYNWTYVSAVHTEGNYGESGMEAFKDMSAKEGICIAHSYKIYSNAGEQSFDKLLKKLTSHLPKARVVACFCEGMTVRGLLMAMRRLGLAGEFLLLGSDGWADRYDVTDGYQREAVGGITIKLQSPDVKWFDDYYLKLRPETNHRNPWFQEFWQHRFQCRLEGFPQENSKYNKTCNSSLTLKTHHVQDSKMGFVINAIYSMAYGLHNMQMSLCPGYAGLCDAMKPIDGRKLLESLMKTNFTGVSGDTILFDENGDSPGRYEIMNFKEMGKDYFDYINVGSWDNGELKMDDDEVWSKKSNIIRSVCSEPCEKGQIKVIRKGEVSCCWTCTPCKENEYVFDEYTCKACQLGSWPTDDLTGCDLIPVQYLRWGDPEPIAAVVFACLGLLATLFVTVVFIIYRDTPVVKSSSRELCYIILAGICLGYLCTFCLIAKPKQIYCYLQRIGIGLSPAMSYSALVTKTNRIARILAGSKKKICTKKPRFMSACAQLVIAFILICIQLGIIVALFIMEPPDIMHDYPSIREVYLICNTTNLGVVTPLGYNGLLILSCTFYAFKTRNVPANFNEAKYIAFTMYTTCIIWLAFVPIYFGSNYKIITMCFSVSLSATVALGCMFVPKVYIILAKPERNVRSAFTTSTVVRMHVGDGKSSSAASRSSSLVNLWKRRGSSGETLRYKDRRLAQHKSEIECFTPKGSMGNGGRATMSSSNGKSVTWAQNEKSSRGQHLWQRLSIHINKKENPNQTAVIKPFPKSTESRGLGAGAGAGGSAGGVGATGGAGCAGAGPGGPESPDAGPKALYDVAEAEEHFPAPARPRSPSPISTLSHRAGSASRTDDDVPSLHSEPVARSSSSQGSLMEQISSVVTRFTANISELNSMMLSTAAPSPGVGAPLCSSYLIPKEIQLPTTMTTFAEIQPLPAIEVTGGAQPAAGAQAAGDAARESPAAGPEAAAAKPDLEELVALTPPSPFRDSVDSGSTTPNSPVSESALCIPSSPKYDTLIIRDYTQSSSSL
row,Compound,EC50
1,CCCc1cc(-c2ccc(F)c(C)c2)nn1CC(=O)N1CC=C(c2ncc(C)o2)CC1 [Example 7.02.206],6 nM
2,CCc1cc(-c2ccc(C)c(C)c2)nn1CC(=O)N1Cc2nc(C)sc2C1 [Example 7.02.075],318 nM
3,Cc1nc2c(s1)CCN(C(=O)Cn1nc(-c3ccc(F)cc3)cc1C(C)C)CC2 [Example 7.02.072],251 nM
4,CCc1cc(-c2cccc(Cl)c2)nn1CC(=O)N1CCc2nc(N)sc2CC1 [Example 7.02.110],156 nM
5,CCCc1cc(-c2ccc(F)c(C)c2)nn1CC(=O)N1Cc2nc(C)oc2C1 [Example 7.02.214],11 nM
6,CCc1cc(-c2ccc(F)cc2)nn1CC(=O)N1CCc2nc(C)sc2CC1 [Example 7.02.029],329 nM
7,CCc1cc(-c2ccc(F)cc2)nn1CC(=O)N1CCN(c2cccc(OC)c2)C(=O)C1 [Example 7.02.028],943 nM
8,CCc1cc(-c2cccc(C)c2)nn1CC(=O)N1CCc2nc(N)sc2CC1 [Example 7.02.079],182 nM
9,CCCc1cc(-c2ccc(F)c(C)c2)nn1CC(=O)N1CCC(c2nnc(C)o2)CC1 [Example 7.02.210],145 nM
10,CCc1cc(-c2cccc(C)c2)nn1CC(=O)N1CCC(c2ncc(OC)cn2)CC1 [Example 7.02.081],991 nM
11,CCc1cc(-c2ccc(F)cc2)nn1CC(=O)N1Cc2nc(C)sc2C1 [Example 7.02.031],1240 nM
12,N#Cc1ccc2c(c1)CN(C(=O)Cn1nc(-c3ccccc3)cc1-c1ccccc1)CC2 [Example 7.01.031],1870 nM

# Next, values leading:
row,EC50,Compound
1,20 nM,Cc1noc(N2CCN(C(=O)Cn3nc(-c4ccc(F)c(C)c4)cc3-c3ccccc3)CC2)n1 [Example 7.02.169]
2,31 nM,Cc1nnc(N2CCN(C(=O)Cn3nc(-c4ccc(C(F)F)cc4)cc3-c3ccccc3)CC2)o1 [Example 7.02.258]
3,10 nM,Cc1nc2c(s1)CCN(C(=O)Cn1nc(-c3ccc(C(F)F)cc3)cc1-c1ccccc1)CC2 [Example 7.02.259]
4,10 nM,Cc1cc(C2=CCN(C(=O)Cn3nc(-c4ccc(F)c(C)c4)cc3-c3ccccc3)CC2)ncn1 [Example 7.02.096]
5,24 nM,CCc1cc(-c2ccc(F)c(C)c2)nn1CC(=O)N1CCc2nc(C)oc2CC1 [Example 7.02.066]
6,49 nM,Cc1ccc(-c2cc(-c3ccccc3)n(CC(=O)N3CCc4nc(N)sc4CC3)n2)cc1C [Example 7.02.094]
7,37 nM,COc1ccc2c(n1)CCN(C(=O)Cn1nc(-c3ccc(F)c(C)c3)cc1-c1ccccc1)CC2 [Example 7.01.091]
8,290 nM,Cc1nnc(C2CCN(C(=O)Cn3nc(-c4cccc(C#N)c4)cc3-c3ccccc3)CC2)o1 [Example 7.02.193]
9,15 nM,Cc1nc2c(s1)CCN(C(=O)Cn1nc(-c3ccc(F)c(C)c3)cc1-c1ccccc1)CC2 [Example 7.02.015]
10,870 nM,O=C(Cn1nc(-c2ccccc2)cc1-c1ccccc1)N1CCc2cn[nH]c2CC1 [Example 7.01.006]
11,398 nM,O=C(Cn1nc(-c2ccccc2)cc1-c1ccccc1)N1CCN(c2cccc(F)c2)C(=O)C1 [Example 7.01.034]
12,1530 nM,CC(=O)Nc1nc2c(s1)CCN(C(=O)Cn1nc(-c3ccccc3)cc1-c1ccccc1)CC2 [Example 7.01.021]
13,82 nM,Cc1nnc(N2CCN(C(=O)Cn3nc(-c4cccc(C#N)c4)cc3-c3ccccc3)CC2)o1 [Example 7.02.192]
14,693 nM,Cc1cc(-c2cc(-c3ccccc3)n(CC(=O)N3CCC(C)(c4nnc(C(C)C)o4)CC3)n2)ccc1F [Example 7.02.018]
15,3 nM,Cc1nc2c(o1)CN(C(=O)Cn1nc(-c3ccc(F)c(C)c3)cc1-c1ccccc1)C2 [Example 7.02.212]
16,68 nM,Cc1nc2c(s1)CCN(C(=O)Cn1nc(-c3cc(C)c(C)cn3)cc1-c1ccccc1)CC2 [Example 7.02.126]
17,34 nM,Cc1cc(-c2cc(-c3ccccc3)n(CC(=O)N3CCc4nc5ccccc5c(C)c4CC3)n2)ccc1F [Example 7.01.084]
18,1950 nM,COc1cc2c(cc1OC)CN(C(=O)Cn1nc(-c3ccccc3)cc1-c1ccccc1)CC2 [Example 7.02.006]
